The values below come from patent US20210386783A1, “USE OF GLUCOSYLCERAMIDE SYNTHASE GENE-DEFICIENT T CELL AND THERAPEUTIC UTILIZATION THEREOF” (SCHOOL CORPORATION, AZABU VETERINARY MEDICINE EDUCATIONAL …, priority 2018, published 2021).

The subject of data set [1] is T cells. The data set can be described thus: Proliferation rate / toxicity of PPMP treatment on T cells (cell proliferation/cytotoxicity assay kit CK-1, Dojindo). The note with it: isolated T cells. It is filed as cell-based, mouse. Here is the method:
(§1) The isolated T cells were treated with PPMP in concentrations of 0, 1, 5 and 10 μM for 24 hours, and then measuring the expression level of GM3 (left view) and the proliferation rate of the cells (right view).
(§2) Using Dynabeads Untouched Mouse T Cells kit (Thermo fisher Scientific), T cells were isolated from the excised spleen, and the T cells were then activated by IL-2 (30 U/mL) and Dynabeads Mouse T-Cell activator CD3-CD28 (Thermo fisher Scientific). Thereafter, the T cells were recovered over time, and the expression of a PD-1 gene was then analyzed by qPCR. With regard to the proliferation rate of the T cells after the activation, the proliferation rate was increased in the cells derived from the T cell-specific UGCG gene-deficient mice (FIG. 7A).
(§3) The T cells were isolated in the same manner as that of the above 3, and the isolated T cells were then treated with PPMP used as a UGCG inhibitor in various concentrations for 24 hours. Thereafter, the expression level of ganglioside GM3 was analyzed using a flow cytometer. […] Moreover, in order to examine the toxicity of the PPMP treatment on T cells, the proliferation rate of the T cells was measured using a cell proliferation/cytotoxicity assay kit (CK-1, Dojindo).

For data set [2], the system named is neuroblastoma cell line. The note with it: combination with fenretinide; cited from earlier work.
The subject of data set [3] is acute leukemia-derived cell line ALL. Conditions: combination with fenretinide; cited from earlier work.
For data set [4], the target named is T1, UGCG (Mus musculus, UniProt O88693).
T1 construct: endogenous in cells; host or cells: primary T cells isolated from mouse spleen
T1 sequence (O88693 1-394): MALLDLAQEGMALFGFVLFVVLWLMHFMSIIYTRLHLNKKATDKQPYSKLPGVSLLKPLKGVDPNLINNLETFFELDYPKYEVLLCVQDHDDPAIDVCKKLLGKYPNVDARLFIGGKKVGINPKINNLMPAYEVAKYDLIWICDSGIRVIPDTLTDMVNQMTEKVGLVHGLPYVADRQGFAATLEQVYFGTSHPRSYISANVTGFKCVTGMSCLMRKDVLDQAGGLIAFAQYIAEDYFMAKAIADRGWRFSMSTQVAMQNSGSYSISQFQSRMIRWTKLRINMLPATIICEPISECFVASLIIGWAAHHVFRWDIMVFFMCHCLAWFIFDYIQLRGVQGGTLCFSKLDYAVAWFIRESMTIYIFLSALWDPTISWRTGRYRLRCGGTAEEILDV
The experiment in a line: Expression level of ganglioside GM3 in isolated T cells after in vitro PPMP treatment (flow cytometer). The format is cell-based. The note with it: isolated mouse spleen T cells, PPMP 0, 1, 5 and 10 μM for 24 hours. Here is the method:
as §1, §2, §3
(In flow cytometry, cells or beads pass a laser one at a time.)

Take `CCCCCCCCCCCCCCCC(=O)NC(CN1CCOCC1)C(O)c1ccccc1` (centres unmarked) [PPMP, 1-phenyl-2-hexadecanoylamino-3-morpholino-1-propanol]: the “proliferation rate of the T cells” value in data set [1] (PPMP 0, 1, 5 and 10 μM for 24 hours, concentration range of reducing glycolipids) is “did not influence on the proliferation rate”. The “toxicity of PPMP on the cells” value in data set [1] (PPMP treatment for 24 hours) is listed as “low”. Moreover, the “effect on cytotoxicity of fenretinide (4-HPR)” value in data set [2] and in data set [3] was “synergistically enhances the cytotoxicity” in each case. In addition, in data set [4], the “expression level of ganglioside GM3” value was “reduced in a PPMP concentration-dependent manner”.
